Laboratory results from patent publication US8889712B2, “IAP antagonists” (Bristol-Myers Squibb Company, priority 2012, dated 2014).
pIC50: −log10 of the molar value.

Tests used:
[1] = biological target: T1, XIAP BIR3 (Homo sapiens, UniProt P98170); test: XIAP-BIR3/SMAC Homogeneous Time Resolved Fluorescence (HTRF) Assay; format: binding; details: 1 nM N-His-BIR3 (241-356, XIAP), 5 nM fluorescein labeled SMAC peptide; HTRF signal; read-out: XIAP BIR3 IC50
T1 construct: His-BIR3 (241-356, XIAP)
Summary of the method: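 Competition HTRF between XIAP-BIR3 and SMAC; reaction 60 min at room temperature, then anti-6×His-terbium Fab detection for a further 30 min.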

[2] = biological target: T2, XIAP BIR2-3 (Homo sapiens, UniProt P98170, C202A/C213G); test: XIAP-BIR2-3 dimeric SMAC Peptide Homogeneous Time Resolved Fluorescence (HTRF) Assay; format: binding; details: 0.5 nM N-His-BIR2-3 (125-356, C202A/C213G, XIAP), 20 nM fluorescein labeled dimeric SMAC peptide; HTRF signal; read-out: XIAP BIR2-3 IC50
T2 construct: His-BIR2-3 (125-356, C202A/C213G, XIAP)
T2 sequence (P98170 125-356 C202A/C213G): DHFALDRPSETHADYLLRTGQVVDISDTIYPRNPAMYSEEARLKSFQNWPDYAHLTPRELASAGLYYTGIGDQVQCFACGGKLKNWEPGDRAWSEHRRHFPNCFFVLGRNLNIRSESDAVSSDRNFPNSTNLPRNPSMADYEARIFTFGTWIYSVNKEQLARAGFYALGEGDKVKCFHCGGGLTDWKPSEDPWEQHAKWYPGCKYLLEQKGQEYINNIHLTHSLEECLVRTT
Procedure: B. […] Assays were performed in black, flat-bottom, 384-well plates. […] Compounds were dissolved at 3 mM in dimethylsulfoxide (DMSO) and evaluated at eleven serially diluted concentrations. IC50 and Ki values were derived by non-linear regression analysis.

T1 sequence (P98170 241-356): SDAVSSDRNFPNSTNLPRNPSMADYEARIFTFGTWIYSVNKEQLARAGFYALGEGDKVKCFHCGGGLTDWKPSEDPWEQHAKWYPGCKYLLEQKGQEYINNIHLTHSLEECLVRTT

Compound	pIC50 [1]	pIC50 [2]
CN[C@@H](C)C(=O)N[C@H](C(=O)N1Cc2cc([C@H]3C[C@@H](C(=O)N[C@@H]4CCCc5ccccc54)N(C(=O)[C@@H](NC(=O)[C@H](C)NC)C(C)(C)C)C3)ccc2C[C@H]1C(=O)N[C@@H](CO)c1ccccc1F)C(C)(C)C [Example 36, (S)-2-((S)-3,3-Dimethyl-2-((S)-2-(methylamino)propanamido)butanoyl)-7-((3R,5S)-1-((S)-3,3-dimethyl-2-((S)-2-(methylamino)propanamido)butanoyl)-5-(((R)-1,2,3,4-tetrahydronaphthalen-1-yl)carbamoyl)pyrrolidin-3-yl)-N-((R)-1-(2-fluorophenyl)-2-hydroxyethyl)-1,2,3,4-tetrahydroisoquinoline-3-carboxamide]	8.48	8.77
CN[C@@H](C)C(=O)N[C@H](C(=O)N1Cc2cc([C@H]3C[C@@H](C(=O)N[C@@H]4CCCc5ccccc54)N(C(=O)[C@@H](NC(=O)[C@H](C)NC)C(C)(C)C)C3)ccc2C[C@H]1C(=O)N[C@@H]1CCCc2cc(OC)ccc21)C(C)(C)C [Example 37, (S)-2-((S)-3,3-Dimethyl-2-((S)-2-(methylamino)propanamido)butanoyl)-7-((3R,5S)-1-((S)-3,3-dimethyl-2-((S)-2-(methylamino)propanamido)butanoyl)-5-(((R)-1,2,3,4-tetrahydronaphthalen-1-yl)carbamoyl)pyrrolidin-3-yl)-N-((R)-6-methoxy-1,2,3,4-tetrahydronaphthalen-1-yl)-1,2,3,4-tetrahydroisoquinoline-3-carboxamide]	8.54	8.74
CN[C@@H](C)C(=O)N[C@H](C(=O)N1Cc2cc([C@H]3C[C@@H](C(=O)N[C@@H]4CCCc5ccccc54)N(C(=O)[C@@H](NC(=O)[C@H](C)NC)C(C)(C)C)C3)ccc2C[C@H]1C(=O)N[C@H](COC)Cc1ccccc1)C(C)(C)C [Example 39, (S)-2-((S)-3,3-Dimethyl-2-((S)-2-(methylamino)propanamido)butanoyl)-7-((3R,5S)-1-((S)-3,3-dimethyl-2-((S)-2-(methylamino)propanamido)butanoyl)-5-(((R)-1,2,3,4-tetrahydronaphthalen-1-yl)carbamoyl)pyrrolidin-3-yl)-N-((S)-1-methoxy-3-phenylpropan-2-yl)-1,2,3,4-tetrahydroisoquinoline-3-carboxamide]	8.14	8.25

Further lines, results first:

pIC50 [1]	pIC50 [2]	Compound
8.60	8.89	CN[C@@H](C)C(=O)N[C@H](C(=O)N1Cc2cc([C@H]3C[C@@H](C(=O)N[C@@H]4CCCc5ccccc54)N(C(=O)[C@@H](NC(=O)[C@H](C)NC)C(C)(C)C)C3)ccc2C[C@H]1C(=O)N[C@H](CO)c1ccccc1F)C(C)(C)C [Example 35, (S)-2-((S)-3,3-Dimethyl-2-((S)-2-(methylamino)propanamido)butanoyl)-7-((3R,5S)-1-((S)-3,3-dimethyl-2-((S)-2-(methylamino)propanamido)butanoyl)-5-(((R)-1,2,3,4-tetrahydronaphthalen-1-yl)carbamoyl)pyrrolidin-3-yl)-N-((S)-1-(2-fluorophenyl)-2-hydroxyethyl)-1,2,3,4-tetrahydroisoquinoline-3-carboxamide]
8.49	8.74	CN[C@@H](C)C(=O)N[C@H](C(=O)N1Cc2cc([C@H]3C[C@@H](C(=O)N[C@@H]4CCCc5ccccc54)N(C(=O)[C@@H](NC(=O)[C@H](C)NC)C(C)(C)C)C3)ccc2C[C@H]1C(=O)Nc1cc(C)nn1-c1ccccc1)C(C)(C)C [Example 38, (S)-2-((S)-3,3-Dimethyl-2-((S)-2-(methylamino)propanamido)butanoyl)-7-((3R,5S)-1-((S)-3,3-dimethyl-2-((S)-2-(methylamino)propanamido)butanoyl)-5-(((R)-1,2,3,4-tetrahydronaphthalen-1-yl)carbamoyl)pyrrolidin-3-yl)-N-(3-methyl-1-phenyl-1H-pyrazol-5-yl)-1,2,3,4-tetrahydroisoquinoline-3-carboxamide]
